Measurements published in patent US20230321012A1 (priority 2021, published 2023).
Several values for one entry are separate records, joined by “and”; a condition that tells them apart may be missing. Equal entries are not always repeated. One block for each compound: values may come before it.

Key:
in vivo = settings: male, Th-MYCN, mouse
Procedure: Male Th-MYCN mice, approximately 5-6 weeks of age, with spontaneous neuroblastoma tumor development commenced treatment according to Table 6.1 when tumors were approximately 5 mm in size. […] Time point: three treatments, cull 24 hours after last treatment in the morning.
Sample Preparation. Animals were euthanized on the morning of the 4th day, after three days of treatment and shaved, and then the carcasses were frozen. Tissues stored at −80° C. were placed inside the cryostat. The temperature of the cryostat was maintained around −20° C. and −40° C. 20-am tissue sections in the sagittal plane going through the left eye were obtained for each carcass. Tissue sections were mounted directly on indium tin oxide (ITO) slides.
Tissue sections on ITO slides were placed in a desiccator for 15 minutes before matrix deposition. An image of the slides was then acquired with a scanner to synchronize positions of the tissue sections with the target of the laser.
Dilution series of the test items were prepared in water from the stock solutions. […] A spot of pure solvent was added as a negative control. Slides were then placed in a desiccator for 15 minutes before MALDI matrix deposition. The control liver tissue consisted of a liver homogenate spiked with an olanzapine standard at 40 g/g of tissue. Sections of the liver homogenate were prepared and added on each ITO slide in order to monitor the signal of the FTICR through the different acquisitions and thus validate the comparison between slides.
For AMXT 1501, 2,5-dihydroxybenzoic acid (DHB) at 40 mg/ml in 1:1 MeOH/H2O with 1% trifluoroacetic acid (TFA) and 25 nM of ^13C4-AMXT 1501 was sprayed on the samples with an automatic sprayer (TM-Sprayer, HTX-Imaging).
The mass spectrometry imaging (MSI) acquisitions were performed using the parameters in Table 6.2 with a data reduction parameter set at 95%. MSI data were acquired and analyzed with FlexImaging 4.1 (Bruker Daltonics), Data Analysis 4.0 (Bruker Daltonics) and Multimaging™ 1.2.2 (ImaBioTech).
Intensity scales representing the molecular signal were adjusted for each image to discriminate the noise from the molecular signal but also to give the best visualization of the signal across the sections. […] Convolution step was performed on the original images using a normalized uniform kernel, which averages the values around a position. The kernel size was manually optimized for the analysis, minimizing the background noise. Based on the MSI data set on the tissue sections and the dilution series, the quantitation of the test items was performed with the IS approach. A correlation between the calibration curve and the signal obtained on the tissues was performed in order to determine the concentration of the test items per histological structure in g/g of tissue and μM.

[1] = Clinical plasma pharmacokinetics of oral DFMO (NCT03536728); format: in vivo; settings: human
Source text: Clinical Trial Outline. […] All solid tumor types are eligible for the trial. […] DFMO was delivered orally twice daily in gel capsules.

[2] = Water solubility, bioavailability and Biopharmaceutics Classification System class; format: physicochemical
Source text: Interim data for the pharmacokinetic (PK) behavior of both agents in human subjects has been generated.

NCI 60-cell line panel = settings: used up to 5 mM, any cell line tested; cited from earlier work

Compound: CCCCCCCCCCCCCCCC(=O)NCCCC[C@@H](N)C(=O)NCCCNCCCCNCCCN [AMXT 1501, D-lys(palmitoyl)-spermine]
concentration at 96 h (in vivo; brown fat, sc, 2.5 mg/kg): 8330 ng/g
concentration at 96 h (in vivo; cardiac blood, sc, 2.5 mg/kg): 8370 ng/g
concentration at 96 h (in vivo; eye, sc, 2.5 mg/kg): 9300 ng/g
concentration at 96 h (in vivo; intestine contents, sc, 2.5 mg/kg): 8470 ng/g
concentration at 96 h (in vivo; intestine wall, sc, 2.5 mg/kg): 9000 ng/g
concentration at 96 h (in vivo; intestine wall, subcutaneous, 2.5 mg/kg): 11400 ng/g
concentration at 96 h (in vivo; kidney, sc, 2.5 mg/kg): 5640 ng/g
concentration at 96 h (in vivo; kidney, subcutaneous, 2.5 mg/kg): 12100 ng/g
concentration at 96 h (in vivo; liver, sc, 2.5 mg/kg): 8870 ng/g
concentration at 96 h (in vivo; liver, subcutaneous, 2.5 mg/kg): 9530 ng/g
concentration at 96 h (in vivo; lung, sc, 2.5 mg/kg): 14500 ng/g
concentration at 96 h (in vivo; lung, subcutaneous, 2.5 mg/kg): 17000 ng/g
concentration at 96 h (in vivo; myocardium, sc, 2.5 mg/kg): 8440 ng/g
concentration at 96 h (in vivo; myocardium, subcutaneous, 2.5 mg/kg): 9590 ng/g
concentration at 24 h (in vivo; organs (range across organs), subcutaneous, 2.5 mg/kg): 3360 ng/g to 17000 ng/g and 5.9 µM to 29.9 µM
concentration at 24 h (in vivo; organs, range from intestine contents to lung, subcutaneous, 2.5 mg/kg): 3360 to 17000 ng/g
concentration at 96 h (in vivo; pancreas, sc, 2.5 mg/kg): 8430 ng/g
concentration at 96 h (in vivo; pancreas, subcutaneous, 2.5 mg/kg): 8540 ng/g
concentration at 96 h (in vivo; spleen, subcutaneous, 2.5 mg/kg): 12900 ng/g
concentration at 96 h (in vivo; stomach contents, sc, 2.5 mg/kg): 8800 ng/g
concentration at 96 h (in vivo; stomach contents, subcutaneous, 2.5 mg/kg): 8480 ng/g
concentration at 96 h (in vivo; stomach wall, sc, 2.5 mg/kg): 8550 ng/g
concentration at 96 h (in vivo; stomach wall, subcutaneous, 2.5 mg/kg): 8810 ng/g
concentration at 96 h (in vivo; testis, sc, 2.5 mg/kg): 9160 ng/g
concentration at 96 h (in vivo; testis, subcutaneous, 2.5 mg/kg): 9820 ng/g
concentration at 96 h (in vivo; thymus, sc, 2.5 mg/kg): 10700 ng/g
concentration at 96 h (in vivo; thymus, subcutaneous, 2.5 mg/kg): 13900 ng/g
concentration at 96 h (in vivo; tumor, sc, 2.5 mg/kg): 10000 ng/g
concentration at 24 h (in vivo; tumor, subcutaneous): 12.7 µM
concentration at 24 h (in vivo; tumor, subcutaneous, 2.5 mg/kg): 7230 ng/mL and 10000 ng/g and 17.6 µM

AUC ([1]; 500 mg/day split BID, Day 28, n=14): 11400 ng·h/mL
Cmax ([1]; 7-day repeat dosing of 1000 mg split BID, Cohort 3, n=6): 4440 ng/mL
water solubility [2]: high water solubility
Compound: NCCCC(N)(C(=O)O)C(F)F (stereo not shown) [DFMO, difluoromethylornithine]
growth inhibitory effect (NCI 60-cell line panel): no growth inhibitory effect
